Measured values as given in ChEMBL document CHEMBL1201862, “PubChem BioAssay data set” (2004).
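Where inhibition never reached the appropriate level, the endpoint shown equals the highest concentration tested. Otherwise, values were interpolated linearly from a five-concentration, 48-hour dose response in 96-well plates. At the GI50, growth is halved.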 Activity calls are given as the source filed them. Rule as the data show it: active = GI50 up to about 1.1 µM and inactive = higher.

Assays:
Test in all cases: inhibition of tumour cell growth, NCI panel, 48 h
[1] = test system: A498
[2] = test system: ACHN
[3] = test system: HOP-62
[4] = test system: K562
[5] = test system: KM12
[6] = test system: LOX IMVI
[7] = test system: MDA-MB-231
[8] = test system: NCI-H522
[9] = test system: OVCAR-3
[10] = test system: OVCAR-4
[11] = test system: OVCAR-5
[12] = test system: RXF 393
[13] = test system: SF-268
[14] = test system: SF-539
[15] = test system: SK-MEL-28
[16] = test system: SK-MEL-5
[17] = test system: SNB-19
[18] = test system: UACC-257
[19] = test system: BT-549

Measured: GI50

O=C(O)c1cccc(S(=O)(=O)NN2C(=O)CSC2c2c(O)ccc3ccccc23)c1 (stereo unspecified)
inactive: [1] 24.5 µM | [2] 34.1 µM | [3] 47 µM | [4] 31.3 µM | [5] 41.3 µM | [6] 27.4 µM | [7] 26.8 µM | [8] 27.8 µM | [9] 20.6 µM | [10] 28.9 µM | [11] 79.3 µM | [12] 45 µM | [13] 32.5 µM | [14] 22.2 µM | [15] 26.4 µM | [16] 21 µM | [17] 26.4 µM | [18] 56.4 µM

COc1ccc(CNC(=O)NCn2cc(-c3ccccc3)nn2)cc1
inactive: [2] > 100 µM | [19] > 100 µM | [3] > 100 µM | [4] > 100 µM | [5] > 100 µM | [6] > 100 µM | [7] > 100 µM | [8] > 100 µM | [10] > 100 µM | [11] > 100 µM | [13] > 100 µM | [14] > 100 µM | [15] > 100 µM | [16] > 100 µM | [17] > 100 µM | [18] > 100 µM

COC1C(OC(=O)c2ccc(C)[nH]2)C(O)C(Oc2ccc3c(O)c(NC(=O)c4ccc(O)c(CC=C(C)C)c4)c(=O)oc3c2Cl)OC1(C)C (stereo unspecified)
inactive: [1] 17.9 µM | [2] 38.3 µM | [19] 17 µM | [3] 15.5 µM | [4] 29.6 µM | [5] 12.5 µM | [6] 18.1 µM | [7] 21.1 µM | [8] 13.2 µM | [9] 18.7 µM | [10] 26.6 µM | [11] 15.9 µM | [13] 17.3 µM | [14] 18 µM | [15] 16.3 µM | [16] 19.7 µM | [17] 15.7 µM | [18] 54 µM

CCOC(=O)c1ccc(Nc2nc3ccc(C(F)(F)F)cc3nc2-c2ccccc2)cc1
inactive: [2] > 100 µM | [3] 80 µM | [4] > 100 µM | [5] > 100 µM | [6] > 100 µM | [8] 47.9 µM | [9] > 100 µM | [11] > 100 µM | [12] 97.3 µM | [13] > 100 µM | [14] > 100 µM | [15] > 100 µM | [16] > 100 µM | [17] > 100 µM | [18] > 100 µM

CC(=O)c1sc2[n+](c1C)C(=O)/C(=C\c1ccccc1Cl)S2
inactive: [1] 29.7 µM | [2] 20.5 µM | [3] 22.8 µM | [4] 25.5 µM | [5] 17.3 µM | [6] 18 µM | [7] 25.4 µM | [8] 18.2 µM | [9] 18 µM | [10] 29.2 µM | [11] 24.3 µM | [12] 26.1 µM | [13] 23.2 µM | [14] 21.8 µM | [15] 16.7 µM | [16] 11.3 µM | [17] 20.3 µM | [18] 19.4 µM

CCN(CC)CCC(=O)Nc1ccc2sc3ccccc3c(=O)c2n1
inactive: [2] 16.3 µM | [19] 15.6 µM | [3] 16 µM | [4] 11 µM | [5] 16.3 µM | [6] 14 µM | [7] > 10 µM | [8] 14.8 µM | [9] 19.2 µM | [10] 22.9 µM | [11] 18.9 µM | [13] 17.1 µM | [14] 18 µM | [15] 16.7 µM | [16] 17.9 µM | [17] 16.7 µM | [18] 17.3 µM

Cc1ccc(S(=O)(=O)NC(=O)NCc2ccc(S(N)(=O)=O)cc2)cc1
inactive: [1] > 100 µM | [2] > 100 µM | [3] > 100 µM | [4] > 100 µM | [5] > 100 µM | [6] > 100 µM | [7] > 100 µM | [8] > 100 µM | [9] > 100 µM | [10] > 100 µM | [11] > 100 µM | [12] > 100 µM | [13] > 100 µM | [14] > 100 µM | [15] > 100 µM | [16] > 100 µM | [17] > 100 µM

CCOc1cc(/C=N\N(C)C)cc(/C=N\N(C)C)c1O
inactive: [1] 55.5 µM | [2] 21.5 µM | [3] 50.8 µM | [4] > 100 µM | [5] > 100 µM | [6] 30.5 µM | [7] 43.1 µM | [9] 31.7 µM | [10] > 100 µM | [11] 48.2 µM | [13] 19.8 µM | [14] 20.6 µM | [15] 35.4 µM | [16] 22.1 µM | [17] 48.9 µM | [18] 36 µM

Nc1cc(N2CCCC2)nc(=O)n1-c1ccccc1
inactive: [2] > 100 µM | [19] > 100 µM | [3] > 100 µM | [4] > 100 µM | [5] > 100 µM | [6] > 100 µM | [7] > 100 µM | [8] > 100 µM | [10] > 100 µM | [11] > 100 µM | [14] > 100 µM | [15] > 100 µM | [16] > 100 µM | [17] > 100 µM | [18] > 100 µM

Cc1ccc(NC(=O)c2cc(S(=O)(=O)N3CCNNC3=O)c(S)cc2Cl)cc1
inactive: [2] > 100 µM | [19] 28.9 µM | [4] 56.5 µM | [5] > 100 µM | [6] > 100 µM | [7] > 100 µM | [8] 26.5 µM | [9] > 100 µM | [10] > 100 µM | [11] > 100 µM | [12] 27.3 µM | [13] > 100 µM | [14] > 100 µM | [15] > 100 µM | [16] > 100 µM | [17] > 100 µM | [18] > 100 µM

Nc1cc(Cl)ccc1SSc1ccc(Cl)cc1N
inactive: [2] 9.55 µM | [19] 9.91 µM | [3] 14.6 µM | [4] 10.4 µM | [5] 9.51 µM | [6] 3.49 µM | [7] 5.6 µM | [8] 7.57 µM | [10] 13.6 µM | [11] 14.8 µM | [12] 10.3 µM | [13] 14.7 µM | [14] 12 µM | [15] 15.9 µM | [16] 14 µM | [17] 22.6 µM | [18] 17.6 µM

[O-][S+](c1ccccc1)C1CC2CC3(CCC21O)OCCO3 (stereo unspecified)
inactive: [1] > 100 µM | [2] > 100 µM | [3] > 100 µM | [4] > 100 µM | [5] > 100 µM | [6] > 100 µM | [7] > 100 µM | [8] > 100 µM | [9] > 100 µM | [10] > 100 µM | [11] > 100 µM | [12] > 100 µM | [13] > 100 µM | [15] > 100 µM | [16] > 100 µM | [17] > 100 µM | [18] > 100 µM
